Measurements published in article PMC5753767 (Bioorganic & medicinal chemistry letters, 2017).
“Also recorded” adds a separate entry of the source.

How the values were obtained:
[1] = tested on: A2780 ovarian cells; test: Antiproliferative activity against A2780 ovarian cells; format: cell-based
[2] = tested on: P. falciparum Dd2; format: cell-based, Plasmodium falciparum; settings: chloroquine-resistant Dd2 strain of P. falciparum
[3] = tested on: Caco-2 cancer cell line; settings: cited from earlier work
[4] = tested on: HT-29 cancer cell line; settings: cited from earlier work

## COc1c2c(cc3c1OCO3)[C@]13C=C[C@H](OC)C[C@H]1[N@](C2)C[C@H]3O [Compound 4, ambelline]
[1]
  Activity against human A2780 cells (in words): lack of activity
[2]
  Antiplasmodial activity (in words): moderate to good antiplasmodial activity

## COc1c2c(cc3c1OCO3)[C@]13C=C[C@H](OC)C[C@H]1[N@](C2)C[C@H]3OC(C)=O [Compound 3, 11-O-acetylambelline]
[3]
  Cytotoxicity IC50 Caco-2: inactive
[4]
  Cytotoxicity IC50 HT-29: inactive

## COC1=CC(=O)[C@@]23CCN(Cc4c2cc2c(c4OC)OCO2)[C@@H]3C1 [Compound 2, distichamine]
[2]
  Antiplasmodial activity (in words): little inhibitory activity

## CC(=O)O[C@@H]1CC=C2CCN3Cc4cc5c(cc4[C@H]1[C@@H]23)OCO5 [Compound 5, acetylcaranine]
[1]
  Activity against human A2780 cells (in words): lack of activity
[2]
  Antiplasmodial activity (in words): strong antiplasmodial activity; also recorded: moderate to good antiplasmodial activity
[3]; read-out: Cytotoxicity IC50 Caco-2, Caco-2 cancer cell line
  IC50: 29.5 µM
[4]; read-out: Cytotoxicity IC50 HT-29, HT-29 cancer cell line
  IC50: 19.2 µM
